pEC50: −log10 of the molar value.
Experiments:
human DRD2, long form = biological target: T1, human DRD2, long form (Homo sapiens, UniProt P14416); assay: Intracellular Ca2+ mobilization assay (HEK293T stably expressing DRD2, chimeric G-protein Gqi5, calcium dye, confocal microscopy); assay type: cell-based; details: for activity in calcium flux assay (in words): calcium flux bioactivity
T1 construct: expressed in transfected cells; Gqi5 chimera transiently transfected
Experimental: Intracellular calcium measurement was used to determine G-protein-mediated signaling by DRD2. Because DRD2 is linked to the G-protein subtype Gi, agonist binding inhibits adenyl cyclase activity.[42] To mitigate this effect, we created an HEK293T cell line stably expressing human DRD2, long form, and a chimeric G-protein, Gqi, which alters the DRD2 receptor’s G-protein coupling so that signaling can occur through Gq, resulting in an intracellular calcium flux.[43] The assay is performed by first loading the cell line with a calcium-sensing dye. Binding of the ligand to the receptor results in an influx of calcium to the cytoplasm, which can be characterized in real time by monitoring the increase in dye fluorescence with confocal microscopy.
Figure 2 Intracellular calcium flux assay. HEK293T cell line stably expressing constructs for human DRD2 and a chimeric G-protein is loaded with calcium-sensing dye, […]. After dosing the probe, confocal microscopy is used to determine the calcium flux in the cell by change in dye fluorescence.
A stable HEK293T-derived cell line-expressing DRD2-Strep Tag II fusion was maintained in DMEM supplemented with 10% FBS, 100 U/mL penicillin, and 100 μg/mL streptomycin in a humidified atmosphere at 37 °C in 5% CO2. On day 1, cells were plated at a density of 4 × 10^4 cells/cm^2 in a poly-D-lysine-coated 18-well chambered coverslip (Ibidi). The following day (day 2), cells were transfected with a 10× solution of 3:1 mixture of Gqi5/Optifect Transfection Reagent (Thermo) in unsupplemented DMEM. On day 3, the transfection media was removed and calcium-sensitive dye loading was performed following the protocol of the Fluo-4 Direct Calcium Assay Kit (Invitrogen). 5× drug stimulation solutions were prepared in filter-sterilized HBSS. Once Fluo-4 loading was complete, a time series acquisition at a rate of 1 fps was recorded using a Zeiss LSM 980 with Airyscan 2. Basal fluorescence was recorded for 20 s, followed by the addition of drug solution to a 1× final concentration and acquisition for an additional 40 s. Results in the form of fold fluorescence increase over basal were averaged over 50 cells in ImageJ (NIH), and GraphPad Prism was used for the analysis of data.

DRD2 [1] = biological target: T2, DRD2 (Homo sapiens, UniProt P14416); assay: Western blot analysis of DRD2-probe binding with competition by parent pharmacophore; parameters: expressed in transfected cells; details: probe 100 nm; membrane fraction enriched via Strep Tag II
Excerpt: To observe the photo-cross-linking of DRD2 at the protein level, we analyzed the colocalization of DRD2 by clicking a fluorophore on the probe and performing Western blots. We further observed the competition with the parent pharmacophore of each probe and the ability of a negative control benzophenone (16) to cross-link to DRD2. Our DRD2-expressing cells or unmodified 293T cells (control group) were suspended in media, treated with the probe at a 100 nm concentration, and photo-cross-linked. The cells were then lysed, and the membrane fraction was separated and enriched for DRD2 by pulldown of the Strep Tag II fusion using magnetic beads. After “clicking” a fluorescent tag to the probe, the membrane fraction was run on an SDS-PAGE gel, transferred to a nitrocellulose membrane, and treated with antibodies against DRD2 and Strep Tag II. […] We also observed many nonspecific binding bands for the probe, which is consistent with our other studies, as well as the observations of the field when it relates to photo-cross-linking groups. […] With this confirmation, we proceeded to proteomic analysis of probe interactions.
Figure 6 Photo-cross-linking of probes 5 and 7 to DRD2 visualized with Western blot. Lanes 1–5 correspond to samples with probe 5 at 100 nm, lanes 6–10 correspond to samples treated with probe 7 at 100 nm, and lanes 11–14 correspond to samples treated with negative control probe 16. Lanes: 1, 6, and 11 are the anti-DRD2 antibody channel, lanes 2, 3, 7, 8, and 12 are fluorescence of the Alexa Fluor 555 clicked to the probes 5, 7, or 16, lanes 4, 9, and 13 are the anti-Strep Tag antibody channel, and lanes 5, 10, and 14 are the overlaid channels for the respective probes.
A stable HEK293T-derived cell line-expressing DRD2-Strep Tag II fusion was maintained in DMEM supplemented with 10% FBS, 100 U/mL penicillin, and 100 μg/mL streptomycin in a humidified atmosphere at 37 °C in 5% CO2. Cells were plated at a density of 4 × 10^4 cells/cm^2 in T300 tissue culture flasks (CellTreat) and allowed to grow to an 80% confluency. At confluency, media was removed and cells were washed once with cold HBSS, followed by incubation for 15 min in cold HBSS with 0.53 mM EDTA. Following incubation, cells were scraped off of the bottom of the flask and the cell suspension was transferred to a 15 mL conical tube and then pelleted at 500g for 5 min. The supernatant was removed, and the cell pellet was resuspended in HBSS followed by centrifugation at 500g for 5 min. […] The supernatant of the cell pellet was removed, and the cells were resuspended in probe solution and incubated at room temperature for 2 min followed by centrifugation at 500g for 5 min. The cell pellet was resuspended in either HBSS or 50 μM competitor solution in HBSS and irradiated with a 365 nm UV lamp (8 W, 2 cm distance) for 30 min at room temperature. The cells were then pelleted at 500g for 5 min, and the supernatant was removed. Membrane fractionation was performed following the MEM-PER Membrane Protein Extraction Kit (Thermo). The solubilized membrane fraction was incubated with hydrophilic streptavidin magnetic beads (NEB) for 1 h at room temperature. The flow-through was removed, and the beads were washed twice with PBS. […]

[2] = cited from earlier work
Dopamine receptor D1 = details: stated without reference; cited from earlier work
DRD2 [3] = biological target: T2, DRD2; assay: PRESTO-TANGO β-arrestin recruitment assay (HTLA cells transfected with DRD2-TANGO, luciferase readout); assay type: cell-based; parameters: TEV protease site and fused transcription factor (TANGO module); expressed in transfected cells; host or cells: HTLA cells (gift of G. Barnea), transiently transfected; details: for activity in β-arrestin recruitment (in words): PRESTO-TANGO
Excerpt: To characterize the response of the β-arrestin effector pathway to our ligands, we used the Parallel-Receptor-ome Expression and Screening via Transcriptional Output TANGO (PRESTO-TANGO) assay developed in the Roth lab.[44],[45] This assay uses luciferase activity to monitor β-arrestin recruitment by DRD2 (Figure 3a).
Figure 3 β-Arrestin recruitment analysis. (a) PRESTO-TANGO assay schematic: a ligand binds a chimeric DRD2 receptor, which then recruits β-arrestin fused with a TEV protease. The protease cuts a site between the receptor and a fused transcription factor, which then transits to the […] to initiate transcription of a luciferase gene. The luciferase activity is subsequently quantified.
HTLA cells were a gift from the laboratory of G. Barnea and were maintained in DMEM supplemented with 10% FBS, 100 U/mL penicillin, 100 μg/mL streptomycin, 2 μg/mL puromycin, 100 μg/mL hygromycin B, and 100 μg/mL G418 in a humidified atmosphere at 37 °C in 5% CO2. On day 1, cells were plated at a density of 1 × 10^5 cells/cm^2 in a black wall, clear-bottom 96-well plate (Nunc). The following day (day 2), cells were transfected with a 10× solution of 3:1 mixture of DRD2-TANGO/Optifect Transfection Reagent (Thermo) in unsupplemented DMEM. On day 3, 1× drug stimulation solutions were prepared in filter-sterilized unsupplemented DMEM. The transfection media was shaken or aspirated from the wells, and drug stimulation solutions were gently added. On day 4, drug solutions were removed from one well every 10 s (to maintain consistency of incubation time) and 50 μL per well of Bright-Glo solution (Promega) diluted 20-fold in HBSS was added. After incubation for 2 min at room temperature, luminescence was counted with an integration time of 10 s in a Spectramax i3x plate reader (Molecular Devices).

T1 sequence (P14416 whole entry): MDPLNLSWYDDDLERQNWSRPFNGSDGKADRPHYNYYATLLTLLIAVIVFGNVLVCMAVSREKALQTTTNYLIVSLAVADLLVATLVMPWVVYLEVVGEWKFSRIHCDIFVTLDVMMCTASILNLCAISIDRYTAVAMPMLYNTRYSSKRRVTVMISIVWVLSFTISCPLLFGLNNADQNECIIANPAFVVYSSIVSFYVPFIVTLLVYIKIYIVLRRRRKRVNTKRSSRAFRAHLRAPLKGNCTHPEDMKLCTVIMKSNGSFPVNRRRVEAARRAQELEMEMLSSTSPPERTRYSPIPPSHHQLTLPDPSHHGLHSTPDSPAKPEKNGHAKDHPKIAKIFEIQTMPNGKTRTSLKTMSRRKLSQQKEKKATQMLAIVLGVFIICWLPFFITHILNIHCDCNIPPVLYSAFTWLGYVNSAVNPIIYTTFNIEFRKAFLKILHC
T2 sequence (P14416 whole entry, the tested form may be a part): as the sequence (P14416 whole entry) above

Question: With C#CCCC1(CCC(=O)N(CCC)CCc2cccc3c2CC(=O)N3)N=N1 [Compound 4, 3-(3-(But-3-yn-1-yl)-3H-diazirin-3-yl)-N-(2-(2-oxoindolin-4-yl)ethyl)-N-propylpropanamide] as the compound, how does the “activity in calcium flux assay (in words)” value (human DRD2, long form) read?
Answer: greatly diminished activity

Question: Which “activity in calcium flux assay (in words)” value (human DRD2, long form) does the source give for C#CCCC1(CCC(=O)N[C@H]2CCc3nc(N)sc3C2)N=N1 [Compound 8, (S)-N-(2-Amino-4,5,6,7-tetrahydrobenzo[d]thiazol-6-yl)-3-(3-(but-3-yn-1-yl)-3H-diazirin-3-yl)propanamide] here?
Answer: greatly diminished activity

Question: With C#CCOc1ccc(C(=O)c2ccc(CN)cc2)cc1 [Compound 16, reference compound] as the compound, how does the “photo-cross-linking / colocalization with DRD2 band (Western blot)” value (DRD2 [1]) read?
Answer: did not show colocalization with the DRD2 band

Question: Which “patients experiencing adverse drug reactions” value [2] does the source give for CCCN[C@H]1CCc2nc(N)sc2C1 [pramipexole] here?
Answer: ≤ 74%

Question: What about the “binding to dopamine receptor D1 (in words)” value (Dopamine receptor D1) of the same compound?
Answer: bound poorly

Question: What about the “activity in β-arrestin recruitment (in words)” value (DRD2 [3]) of the same compound?
Answer: low nanomolar activity

Question: Which results are given for CCCN(CCC)CCc1cccc2c1CC(=O)N2 [ropinirole, reference compound]?
Answer: pEC50 (human DRD2, long form; Ca assay, HEK293T stably expressing human DRD2 and chimeric G-protein, Hill slope of 1.0): 6.91; activity in β-arrestin recruitment (in words) (DRD2 [3]): low nanomolar activity; pEC50 (DRD2 [3]; PRESTO-TANGO β-arrestin recruitment, luciferase activity, Hill slope of 1.0): 8.21
